Data taken from ChEMBL document CHEMBL4118151, “Highly potent activity of isopulegol-derived substituted octahydro-2H-chromen-4-ols against influenza A and B viruses” (Bioorg Med Chem Lett, 2018).
Activity calls are given as the source filed them. The calls are words filed in the database; no cut-off is given here.

Legend:
[1] = Cytotoxicity against MDCK cells after 48 hrs by MTT assay; assay type: cell-based, Canis lupus familiaris; conditions: dog
Influenza A virus [2] = experiment: Antiviral activity against amantadine/oseltamivir-susceptible Influenza A virus (A/Singapore/1/57(H2N2)) infected in MDCK cells assessed as inhibition of viral replication after 48 hrs by hemagglutination test; assay type: functional, organism-based, Influenza A virus (A/Singapore/1/1957(H2N2))
H3N2 subtype = experiment: Antiviral activity against amantadine/oseltamivir-susceptible Influenza A virus (A/Aichi/2/68(H3N2)) infected in MDCK cells assessed as inhibition of viral replication after 48 hrs by hemagglutination test; assay type: functional, organism-based; conditions: A/Aichi/2/1968(H3N2)
Influenza A virus [3] = experiment: Antiviral activity against amantadine/oseltamivir-susceptible Influenza A virus (A/mallard/Netherlands/12/00(H7N3)) infected in MDCK cells assessed as inhibition of viral replication after 48 hrs by hemagglutination test; assay type: functional, organism-based, Influenza A virus (A/mallard/Netherlands/12/2000(H7N3))
Influenza A virus [4] = experiment: Antiviral activity against amantadine/oseltamivir-susceptible Influenza A virus (A/mallard/Pennsylvania/10218/84(H5N2)) infected in MDCK cells assessed as inhibition of viral replication after 48 hrs by hemagglutination test; assay type: functional, organism-based, Influenza A virus (A/mallard/Pennsylvania/10218/1984(H5N2))
[5] = Selectivity index, ratio of CC50 for MDCK cells to IC50 for amantadine/oseltamivir-susceptible Influenza A virus (A/Singapore/1/57(H2N2)); assay type: toxicity; conditions: dog, read-out: Ratio CC50/IC50
[6] = Selectivity index, ratio of CC50 for MDCK cells to IC50 for amantadine/oseltamivir-susceptible Influenza A virus (A/Aichi/2/68(H3N2)); assay type: toxicity; conditions: dog, read-out: Ratio CC50/IC50
[7] = Selectivity index, ratio of CC50 for MDCK cells to IC50 for amantadine/oseltamivir-susceptible Influenza A virus (A/mallard/Pennsylvania/10218/84(H5N2)); assay type: toxicity; conditions: dog, read-out: Ratio CC50/IC50
[8] = Selectivity index, ratio of CC50 for MDCK cells to IC50 for amantadine/oseltamivir-susceptible Influenza A virus (A/mallard/Netherlands/12/00(H7N3)); assay type: toxicity; conditions: dog, read-out: Ratio CC50/IC50
Influenza A virus [9] = experiment: Antiviral activity against Influenza A virus (A/Puerto Rico/8/34(H1N1)) infected in MDCK cells assessed as inhibition of viral replication at 500 uM up to 2 hrs post-infection by hemagglutination test; assay type: functional, organism-based; conditions: A/Puerto Rico/8/1934(H1N1)

SMILES	CC50 at 48 h [1]	other results
C[C@@H]1CC[C@@H]2[C@H](C1)OC(C)(C)CC2(C)O (some centres not stated)	72.2 µM	
C[C@@H]1CC[C@@H]2[C@@H](C1)O[C@@H](C1CCCCC1)C[C@@]2(C)O	24.2 µM	
CCC1(CC)C[C@@](C)(O)[C@@H]2CC[C@@H](C)C[C@@H]2O1	188 µM	
CC(N)C12CC3CC(CC(C3)C1)C2 (configuration not stated) [RIMANTADINE]	319 µM	
C[C@@H]1CC[C@@H]2[C@H](C1)OC1(CCCCCCC1)C[C@@]2(C)O	379 µM	
C[C@@H]1CC[C@@H]2[C@@H](C1)OC(C)(C)C[C@]2(C)O	816 µM	
C[C@@H]1CC[C@@H]2[C@H](C1)OC1(CCCCC1)C[C@@]2(C)O	627 µM	
NC(=O)c1ncn([C@@H]2O[C@H](CO)[C@@H](O)[C@H]2O)n1 [RIBAVIRIN]	> 2130 µM	
CCCC1(CCC)C[C@@](C)(O)[C@@H]2CC[C@@H](C)C[C@@H]2O1	131 µM	
C[C@@H]1CC[C@@H]2[C@@H](C1)OC(C)(C)C[C@@]2(C)O	> 1420 µM	IC50 (Influenza A virus [2]): 0.9 µM; IC50 (H3N2 subtype): > 1420 µM; IC50 (Influenza A virus [3]): 613 µM; IC50 (Influenza A virus [4]): 160 µM; selectivity ratio [5]: 1570; selectivity ratio [6]: 1; selectivity ratio [7]: 9; selectivity ratio [8]: 2; inhibition (Influenza A virus [9]): Active
C[C@@H]1CC[C@@H]2[C@H](C1)OC1(CCCC1)C[C@@]2(C)O	810 µM	
C[C@@H]1CC[C@@H]2[C@H](C1)OC1(CCCCCC1)C[C@@]2(C)O	210 µM	
CCC[C@H]1C[C@@](C)(O)[C@@H]2CC[C@@H](C)C[C@H]2O1	> 1330 µM	
